Source: patent US12509424B2, “Compound and composition as PDGF receptor kinase inhibitor” (NIPPON SHINYAKU CO., LTD., priority 2019, dated 2025)
Like-named read-outs stand apart in the source and are kept apart here.

Legend:
PDGFR-β = PDGFR-β (Homo sapiens (Human), UniProt P09619); assay: PDGFR-β tyrosine kinase inhibitory action (HTRF KinEASE-TK); type: biochemical; details: PDGFR-β enzyme 1 ng/μL, 30° C. for 30 minutes; read-out: PDGF-β IC50
How it was run: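 Recombinant PDGFR-β at 1 ng/μL final with TK substrate-3-biotin in a substrate solution containing 0.6 μM ATP; buffer 50 mM HEPES pH 7.0, 5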

[1] = molecular target: TEL-PDGFRβ fusion gene transfected cells (Ba/F3); assay: Suppression of proliferation of TEL-PDGFRβ fusion gene transfected Ba/F3 cells; type: cell-based, human; details: TEL-PDGFRβ expressing Ba/F3 cells, 72 hours, final concentration 0.1 to 10,000 nM; read-out: PDGFR β/BaF3 proliferation inhibition (IC50)
Description: 2. Preparation of Test Substance
4. Analysis of Measurement Results

[2] = test system: pulmonary arterial smooth muscle cells; assay: Suppression of proliferation of pulmonary arterial smooth muscle cells (PDGF-BB stimulation, BrdU); type: cell-based; details: read-out: Human normal PASMC proliferation suppression (PDGF stimulation_IC50)
How it was run: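 Test compound (final 3 to 10,000 nM) was added together with BrdU and PDGF-BB (final 10 ng/mL) to healthy human pulmonary artery smooth muscle cells held a day in 0.1% FBS. Proliferation was read after 1 day as anti-BrdU-detected BrdU incorporation.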

[3] = molecular target: TEL-KIT fusion gene transfected cells (Ba/F3); assay: Suppression of proliferation of TEL-KIT fusion gene transfected Ba/F3 cells; details: read-out: KIT/BaF3 proliferation inhibition (IC50); TEL-KIT expressing Ba/F3 cells, 72 hours, final concentration 0.1 to 10,000 nM;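 note: viable cells quantified via formazan from tetrazolium reduction, inhibition scaled with 0.1% DMSO control as 0% and medium-only blank as 100%, IC50 from two-parameter logistic fit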
[4] = PASMC, human PDGF-BB 10 ng/mL, BrdU uptake, final concentration 3 to 10,000 nM
[5] = PASMC, 24 h, healthy human derived pulmonary arterial smooth muscle cells, human PDGF-BB 10 ng/mL stimulation, BrdU uptake after 1 day, test substance final concentration 3 to 10,000 nM

TEL-PDGFRβ fusion gene transfected cells (Ba/F3), sequence (P09619 33-1106 limits assumed, change not shown): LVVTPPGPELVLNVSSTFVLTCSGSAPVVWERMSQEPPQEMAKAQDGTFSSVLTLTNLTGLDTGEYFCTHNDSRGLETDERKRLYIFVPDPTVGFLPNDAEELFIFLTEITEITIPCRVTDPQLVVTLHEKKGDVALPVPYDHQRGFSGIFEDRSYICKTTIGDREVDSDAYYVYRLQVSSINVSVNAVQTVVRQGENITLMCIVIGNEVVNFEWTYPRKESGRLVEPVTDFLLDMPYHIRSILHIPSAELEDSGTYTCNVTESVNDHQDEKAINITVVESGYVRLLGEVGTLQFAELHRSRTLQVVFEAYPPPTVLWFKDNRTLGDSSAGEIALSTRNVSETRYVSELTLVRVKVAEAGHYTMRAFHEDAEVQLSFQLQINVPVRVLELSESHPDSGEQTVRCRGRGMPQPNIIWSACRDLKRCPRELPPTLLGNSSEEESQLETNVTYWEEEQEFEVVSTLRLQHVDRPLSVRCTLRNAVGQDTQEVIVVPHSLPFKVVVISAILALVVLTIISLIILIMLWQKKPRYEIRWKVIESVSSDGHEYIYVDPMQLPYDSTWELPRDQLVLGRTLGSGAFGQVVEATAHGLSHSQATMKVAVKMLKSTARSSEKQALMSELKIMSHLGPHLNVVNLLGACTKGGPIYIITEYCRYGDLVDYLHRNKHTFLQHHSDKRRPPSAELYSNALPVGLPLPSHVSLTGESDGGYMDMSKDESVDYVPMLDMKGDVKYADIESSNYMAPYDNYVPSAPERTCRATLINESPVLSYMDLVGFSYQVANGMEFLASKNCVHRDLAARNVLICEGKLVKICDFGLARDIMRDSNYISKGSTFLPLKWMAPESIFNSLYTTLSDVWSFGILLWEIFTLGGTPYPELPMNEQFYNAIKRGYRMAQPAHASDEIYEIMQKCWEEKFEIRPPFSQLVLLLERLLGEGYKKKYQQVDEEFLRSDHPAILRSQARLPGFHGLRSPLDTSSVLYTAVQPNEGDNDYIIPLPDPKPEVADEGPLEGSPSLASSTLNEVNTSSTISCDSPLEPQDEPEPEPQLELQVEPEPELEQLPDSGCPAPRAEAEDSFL
PDGFR-β, sequence (P09619 33-1106): as the sequence (P09619 33-1106 limits assumed, change not shown) above
TEL-KIT fusion gene transfected cells (Ba/F3), sequence (P10721 26-976 limits assumed, change not shown): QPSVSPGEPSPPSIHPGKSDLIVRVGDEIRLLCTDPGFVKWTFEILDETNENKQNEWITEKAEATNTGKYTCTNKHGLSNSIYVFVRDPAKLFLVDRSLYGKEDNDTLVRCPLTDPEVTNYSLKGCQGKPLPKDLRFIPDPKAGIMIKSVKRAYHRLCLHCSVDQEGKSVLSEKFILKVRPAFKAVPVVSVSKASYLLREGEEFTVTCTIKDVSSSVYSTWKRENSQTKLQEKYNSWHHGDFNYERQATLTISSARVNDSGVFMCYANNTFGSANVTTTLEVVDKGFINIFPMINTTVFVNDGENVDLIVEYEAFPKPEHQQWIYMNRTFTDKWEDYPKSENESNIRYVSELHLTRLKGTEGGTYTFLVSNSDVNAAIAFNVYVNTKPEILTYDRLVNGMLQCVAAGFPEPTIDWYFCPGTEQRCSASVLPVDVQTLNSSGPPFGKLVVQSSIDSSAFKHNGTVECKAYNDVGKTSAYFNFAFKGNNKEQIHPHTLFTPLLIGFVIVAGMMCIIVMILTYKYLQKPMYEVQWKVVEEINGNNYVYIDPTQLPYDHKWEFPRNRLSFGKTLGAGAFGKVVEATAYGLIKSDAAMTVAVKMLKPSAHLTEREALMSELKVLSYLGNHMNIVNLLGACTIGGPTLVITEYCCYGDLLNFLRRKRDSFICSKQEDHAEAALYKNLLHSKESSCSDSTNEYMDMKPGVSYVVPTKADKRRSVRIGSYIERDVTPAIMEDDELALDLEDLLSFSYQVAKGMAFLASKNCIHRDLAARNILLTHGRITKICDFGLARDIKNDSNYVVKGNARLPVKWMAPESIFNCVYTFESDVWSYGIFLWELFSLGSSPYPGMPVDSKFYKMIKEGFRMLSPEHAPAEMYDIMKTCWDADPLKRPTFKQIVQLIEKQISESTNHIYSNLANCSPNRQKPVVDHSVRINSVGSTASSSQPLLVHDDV

CC(C)=Cc1cncc(C(=O)Nc2cc(C(=O)N[C@H]3CCCC[C@@H]3O)ccc2C)c1 [Example 23, N-(5-{[(1S,2S)-2-hydroxycyclohexyl]carbamoyl}-2-methylphenyl)-5-(2-methylprop-1-en-1-yl)pyridine-3-carboxamide]
IC50 (PDGFR-β): 26 nM
IC50 [1]: 4.9 nM
IC50 [2, 4]: 64 nM
IC50 [3]: 620 nM

Cc1ccc(C(=O)N[C@H]2CCCC[C@@H]2O)cc1NCc1cncc(-c2cnccn2)c1 [Example 115, N-[(1S,2S)-2-hydroxycyclohexyl]-4-methyl-3-({[5-(pyrazin-2-yl)pyridin-3-yl]methyl}amino)benzamide]
IC50 (PDGFR-β): 260 nM
IC50 [1]: 1.4 nM
IC50 [2, 5]: 290 nM
IC50 [3]: 1700 nM

Cc1ccc(C(=O)N[C@H]2CCCC[C@@H]2O)cc1CCc1cncc(-c2ccccc2)c1 [Example 174, N-[(1S,2S)-2-hydroxycyclohexyl]-4-methyl-3-[2-(5-phenylpyridin-3-yl)ethyl]benzamide]
IC50 (PDGFR-β): 27 nM
IC50 [1]: 50 nM
IC50 [3]: 870 nM

Cc1ccc(C(=O)N[C@H]2CCCC[C@@H]2O)cc1NC(=O)c1cncc(Oc2ncccn2)c1 [Example 52, N-(5-{[(1S,2S)-2-hydroxycyclohexyl]carbamoyl}-2-methylphenyl)-5-[(pyrimidin-2-yl)oxy]pyridine-3-carboxamide]
IC50 (PDGFR-β): 77 nM
IC50 [2, 5]: 420 nM

Cc1ccc(C(=O)N[C@H]2CCCC[C@@H]2O)cc1NCc1ccc(NCC2CC2)nc1 [Example 117, 3-[({6-[(cyclopropylmethyl)amino]pyridin-3-yl}methyl)amino]-N-[(1S,2S)-2-hydroxycyclohexyl]-4-methylbenzamide]
IC50 (PDGFR-β): 79 nM
IC50 [2, 5]: 230 nM

COC1CC(C(=O)Nc2ccc(CNc3cc(C(=O)N[C@H]4CCCC[C@@H]4O)ccc3C)cn2)C1 (stereo partly drawn) [Example 138, N-[(1S,2S)-2-hydroxycyclohexyl]-3-{[(6-{[(1r,3r)-3-methoxycyclobutane-1-carbonyl]amino}pyridin-3-yl)methyl]amino}-4-methylbenzamide]
IC50 (PDGFR-β): 16 nM
IC50 ([2]; healthy human derived pulmonary arterial smooth muscle cells, human PDGF-BB 10 ng/mL stimulation, BrdU uptake after 1 day, test substance final concentration 3 to 10,000 nM): 51 nM

Nc1ncc(/C(F)=C/c2cc(C(=O)N[C@H]3CCCC[C@@H]3O)ccc2F)cn1 [Example 192, 3-[(Z)-2-(2-aminopyrimidin-5-yl)-2-fluoroethenyl]-4-fluoro-N-[(1S,2S)-2-hydroxycyclohexyl]benzamide]
IC50 (PDGFR-β): 29 nM
IC50 [2, 5]: 24 nM

Cc1ncc(C(=O)N[C@H]2CCCC[C@@H]2O)cc1NCc1cnn2ccccc12 [Example 123, N-[(1S,2S)-2-hydroxycyclohexyl]-6-methyl-5-{[(pyrazolo[1,5-a]pyridin-3-yl)methyl]amino}pyridine-3-carboxamide]
IC50 (PDGFR-β): 210 nM
IC50 [2, 5]: 290 nM

Cc1ccc(C(=O)N[C@H]2CCCC[C@@H]2O)cc1NC(=O)c1cncc(Oc2ccccn2)c1 [Example 51, N-(5-{[(1S,2S)-2-hydroxycyclohexyl]carbamoyl}-2-methylphenyl)-5-[(pyridin-2-yl)oxy]pyridine-3-carboxamide]
IC50 (PDGFR-β): 61 nM
IC50 [2, 5]: 180 nM

Cc1ccc(C(=O)N[C@H]2CCCC[C@@H]2O)cc1NCc1cnc(-c2ccccc2)nc1 [Example 121, N-[(1S,2S)-2-hydroxycyclohexyl]-4-methyl-3-{[(2-phenylpyrimidin-5-yl)methyl]amino}benzamide]
IC50 (PDGFR-β): 160 nM
IC50 [2, 5]: 300 nM

O=C(Nc1cc(C(=O)N[C@H]2CCCC[C@@H]2O)ccc1F)c1cncc(OCC2CC2)c1 [Example 56, 5-(cyclopropylmethoxy)-N-(2-fluoro-5-{[(1S,2S)-2-hydroxycyclohexyl]carbamoyl}phenyl)pyridine-3-carboxamide]
IC50 (PDGFR-β): 120 nM
IC50 [2, 5]: 240 nM

Cc1nc(N)ncc1/C(F)=C/c1cc(C(=O)N[C@H]2CCCC[C@@H]2O)ccc1F [Example 204, 3-[(Z)-2-(2-amino-4-methylpyrimidin-5-yl)-2-fluoroethenyl]-4-fluoro-N-[(1S,2S)-2-hydroxycyclohexyl]benzamide]
IC50 (PDGFR-β): 21 nM
IC50 [2, 5]: 52 nM

Cc1ccc(C(=O)N[C@H]2CCCC[C@@H]2O)cc1OC(C)c1cncc(-c2ncccn2)c1 (stereo partly drawn) [Example 171, N-[(1S,2S)-2-hydroxycyclohexyl]-4-methyl-3-{1-[5-(pyrimidin-2-yl)pyridin-3-yl]ethoxy}benzamide]
IC50 (PDGFR-β): 260 nM
IC50 [1]: 12 nM
IC50 [3]: 2400 nM

O=C(N[C@H]1CCCC[C@@H]1O)c1ccc(F)c(/C=C(\F)c2cncc(NC3COC3)c2)c1 [Example 196, 4-fluoro-3-[(Z)-2-fluoro-2-{5-[(oxetan-3-yl)amino]pyridin-3-yl}ethenyl]-N-[(1S,2S)-2-hydroxycyclohexyl]benzamide]
IC50 (PDGFR-β): 26 nM
IC50 [2, 5]: 31 nM

COc1cncc(C(=O)Nc2cc(C(=O)N[C@H]3CCCC[C@@H]3O)ccc2C)c1 [Example 49, N-(5-{[(1S,2S)-2-hydroxycyclohexyl]carbamoyl}-2-methylphenyl)-5-methoxypyridine-3-carboxamide]
IC50 (PDGFR-β): 120 nM
IC50 [2, 5]: 250 nM

Cc1ccc(C(=O)N[C@@H](CO)[C@@H](O)c2ccccc2)cc1C#Cc1cncc(Br)c1 [Example 76, 3-[(5-bromopyridin-3-yl)ethynyl]-N-[(1S,2S)-1,3-dihydroxy-1-phenylpropan-2-yl]-4-methylbenzamide]
IC50 (PDGFR-β): 49 nM
IC50 [2, 5]: 27 nM

CN1CCN(Cc2cncc(/C(F)=C/c3cc(C(=O)N[C@H]4CCCC[C@@H]4O)ccc3F)c2)CC1 [Example 186, 4-fluoro-3-[(Z)-2-fluoro-2-{5-[(4-methylpiperazin-1-yl)methyl]pyridin-3-yl}ethenyl]-N-[(1S,2S)-2-hydroxycyclohexyl]benzamide]
IC50 (PDGFR-β): 150 nM
IC50 [2, 5]: 220 nM

Cc1ccc(C(=O)N[C@H]2CCCC[C@@H]2O)cc1C(=O)Nc1cncc(-c2ccccc2)c1 [Example 77, N^1-[(1S,2S)-2-hydroxycyclohexyl]-4-methyl-N^3-(5-phenylpyridin-3-yl)benzene-1,3-dicarboxamide]
IC50 (PDGFR-β): 38 nM
IC50 [1]: 79 nM
IC50 [3]: 600 nM

Cc1ccc(C(=O)N[C@H]2CCCC[C@@H]2O)cc1NCc1cncc(-n2nccn2)c1 [Example 145, N-[(1S,2S)-2-hydroxycyclohexyl]-4-methyl-3-({[5-(2H-1,2,3-triazol-2-yl)pyridin-3-yl]methyl}amino)benzamide]
IC50 (PDGFR-β): 100 nM
IC50 [2, 5]: 47 nM

Cc1ccc(C(=O)N[C@H]2CCCC[C@@H]2O)cc1NCc1ccc(NC(=O)C2CCOC2)nc1 (stereo partly drawn) [Example 139, N-{5-[(5-{[(1S,2S)-2-hydroxycyclohexyl]carbamoyl}-2-methylanilino)methyl]pyridin-2-yl}oxolane-3-carboxamide]
IC50 (PDGFR-β): 30 nM
IC50 [2, 5]: 100 nM

Cc1ncc(C(=O)N[C@H]2CCCC[C@@H]2O)cc1/C=C(\F)c1cncc(OCC2CC2)c1 [Example 187, 5-{(Z)-2-[5-(cyclopropylmethoxy)pyridin-3-yl]-2-fluoroethenyl}-N-[(1S,2S)-2-hydroxycyclohexyl]-6-methylpyridine-3-carboxamide]
IC50 (PDGFR-β): 14 nM
IC50 [2, 5]: 20 nM

O=C(N[C@H]1CCCC[C@@H]1O)c1ccc(F)c(CNc2cncc(-c3ncccn3)c2)c1 [Example 151, 4-fluoro-N-[(1S,2S)-2-hydroxycyclohexyl]-3-({[5-(pyrimidin-2-yl)pyridin-3-yl]amino}methyl)benzamide]
IC50 (PDGFR-β): 170 nM
IC50 [2, 5]: 250 nM

Cc1ncc(C(=O)N[C@H]2CCCC[C@@H]2O)cc1CNc1cncc(C#CC2CC2)c1 [Example 157, 5-({[5-(cyclopropylethynyl)pyridin-3-yl]amino}methyl)-N-[(1S,2S)-2-hydroxycyclohexyl]-6-methylpyridine-3-carboxamide]
IC50 (PDGFR-β): 180 nM
IC50 [2, 5]: 52 nM

Cc1ccc(C(=O)N[C@H]2CCCC[C@@H]2O)cc1NCc1cnc2cccnn12 [Example 110, N-[(1S,2S)-2-hydroxycyclohexyl]-3-{[(imidazo[1,2-b]pyridazin-3-yl)methyl]amino}-4-methylbenzamide]
IC50 (PDGFR-β): 350 nM
IC50 [2, 5]: 240 nM

O=C(N[C@H]1CCCC[C@@H]1O)c1cccc(CNc2cncc(-c3ncccn3)c2)c1 [Example 150, N-[(1S,2S)-2-hydroxycyclohexyl]-3-({[5-(pyrimidin-2-yl)pyridin-3-yl]amino}methyl)benzamide]
IC50 (PDGFR-β): 360 nM
IC50 [2, 5]: 300 nM

O=C(N[C@H]1CCCC[C@@H]1O)c1ccc(F)c(/C=C(\F)c2cncc(F)c2)c1 [Example 207, 4-fluoro-3-[(Z)-2-fluoro-2-(5-fluoropyridin-3-yl)ethenyl]-N-[(1S,2S)-2-hydroxycyclohexyl]benzamide]
IC50 (PDGFR-β): 100 nM
IC50 [2, 4]: 99 nM

Cc1ncc(C(=O)N[C@H]2CCCC[C@@H]2O)cc1/C=C(\F)c1cncc(N2CCOCC2)c1 [Example 188, 5-{(Z)-2-fluoro-2-[5-(morpholin-4-yl)pyridin-3-yl]ethenyl}-N-[(1S,2S)-2-hydroxycyclohexyl]-6-methylpyridine-3-carboxamide]
IC50 (PDGFR-β): 68 nM
IC50 [2, 5]: 60 nM
